# Assay results published in patent US5977065A, “Bacterial nitroreductase for the reduction of CB1954 and analogues thereof to a cytotoxic form” (Cancer Research Campaign Technology Limited, priority 1991, dated 1999).
# *1 amine or outer side, *2 acyl side, *3 side chain or, on linkers, in order; H or OH if unused. Where a SMILES comes first, the peptide text is derived from it. Bridges are numbered along the chain shown (N, C = ends). Roman numbers before positions name the chains, in order. [ ]: non-standard residue; d: D form. Actinocin(9to1) = Cc1c2oc3c(C)ccc(C(=O)[*:1])c3nc-2c(C(=O)[*:2])c(N)c1=O; NMeV = CN[C@H](C(=O)O)C(C)C; Sar = CNCC(=O)O
# B1: Nitroreductase (NR): flavoprotein nitroreductase isolated from E. coli B, molecular weight 24 kDa, FMN coenzyme (protein, UniProt P38489 1-217, looked up)
# Oxygen-insensitive NAD(P)H …: MDIISVALKRHSTKAFDASKKLTPEQAEQIKTLLQYSPSSTNSQPWHFIVASTEEGKARVAKSAAGNYVFNERKMLDASHVVVFCAKTAMDDVWLKLVVDQEDADGRFATPEAKAANDKGRKFFADMHRKDLHDDAEWMAKQVYLNVGNFLLGVAALGLDAVPIEGFDAAILDAEFGLKEKGYTSLVVVPVGHHSVEDFNATLPKSRLPQNITLTEV
# B2: Walker NAD(P)H dehydrogenase (quinone) EC. 1.6.99.2 (Rattus norvegicus) (protein)
# chain: AVRRALIVLAHAERTSFNYAMKEAAVEALKKKGWEVVESDLYAMNFNPLISRNDITGEPKDSENFQYPVESSLAYKEGRLSPDIVAEQKKLEAADLVIFQFPLYWFGVPAILKGWFERVLVAGFAYTYATMYDKGPFQNKKTLLSITTGGSGSMYSLQGVHGDMNVILWPIQSGILRFCGFQVLEPQLVYSIGHTPPDARVQVLEGWKKRLETVWEESPLYFAPSSLFDLNFQAGFLLKKEVQEEQKKNKFGLSVGHHLGKSIPADNQIKARK
# notes: the enzyme isolated from the Walker tumour, EC.1.6.99.2; from tissue; host or cells: Walker tumour (Walker cell)
# What was measured:
# [1] = system: CC1=CC(=O)c2ccccc2C1=O; assay: Enzyme kinetic and inhibition studies; assay type: biochemical, E. coli B
# [2] = system: NC(=O)c1cc(N2CC2)c([N+](=O)[O-])cc1[N+](=O)[O-]; assay: Enzyme kinetic and inhibition studies; assay type: biochemical, E. coli B
# [3] = biological target: T1, E. coli nitroreductase (Escherichia coli, UniProt P38489); assay: Substrate specificity: relative rate of NADH oxidation by HPLC (Table 5); assay type: biochemical; conditions: relative to CB 1954; 37° C. in air, NADH 500 μM, substrate 100 μM
# T1 construct: endogenous in cells; host or cells: E. coli B cell paste; endogenous enzyme purified by Phenyl-Sepharose and Q-Sepharose chromatography, not recombinant
# Procedure: The ability of the E. coli nitroreductase of the invention to reduce nitro-compounds other than CB 1954 was determined by HPLC by following the decrease in the peak area of NADH resulting from its oxidation. The experiments were carried out as above but the aliquots were injected onto a Partisphere SAX (110×4.7 mm) HPLC column and eluted isocratically (1 ml/min) with 75 mM NaH2 PO4.
# The relative rates of reduction of various nitrobenzamides and
# nitrobenzenes with E. coli nitroreductase enzyme. Reduction
# rates were determined by the resulting oxidation of NADH. All
# reactions were carried out at 37° C. in air, with NADH (500
# electron donor, at an initial substrate concentration of 100 μM.
# [4] = biological target: T1, E. coli nitroreductase; assay: % drug reduction in the V79 incubations, remaining prodrug by HPLC (Table 8); assay type: biochemical
# Procedure: (§1) Generation of cytotoxicity by the action of the E. coli nitroreductase of Example 1 upon the prodrugs 4-[bis(2-chloroethyl)amino]phenylcarbamic acid 4'-nitrobenzyl ester (I where R^1 NH2 =III) and N-4-nitrobenzyloxy-carbonyl-actinomycin D (V) are shown in Table 8.
# (§2) The effect of enzyme-activated prodrugs on the survival of V79
# (§3) cells. 1 ml volumes of V79 cells (2 × 10^5 /ml) were incubated
# (§4) with prodrug, 500 μM NADH, and 10 μg/ml enzyme. After a 2 hour
# (§5) incubation at 37° C., the cells were harvested and assayed for
# (§6) their colony forming ability, and the supernatant assayed for
# (§7) the concentration of remaining prodrug by HPLC.
# [5] = system: V79 cells; assay: Survival (colony forming ability) of V79 cells with enzyme-activated prodrugs (Table 8); assay type: cell-based
# Procedure: as §1, §2, §3, §4, §5, §6, §7
# [6] = system: MAWI cells; assay: Survival (colony forming ability) of MAWI cells with enzyme-activated prodrugs (Table 7); assay type: cell-based, human
# Procedure: (§8) The effect of enzyme-activated prodrugs on the survival of MAWI
# (§9) cells. 1 ml volumes of MAWI cells (2 × 10^5 /ml) were
# (§10) with 50 μM prodrug, 500 μM NADH, and 10 μg/ml the enzyme of
# (§11) Example 1. After a 2 hour incubation at 37° C., the cells were
# (§12) harvested and assayed for their colony forming ability, and the
# (§13) supernatant assayed for the concentration of remaining prodrug
# [7] = biological target: T2, E. coli B nitroreductase (Escherichia coli, UniProt P38489); assay: % drug reduction in the MAWI incubations, remaining prodrug by HPLC (Table 7); assay type: biochemical
# T2 construct: endogenous in cells; host or cells: E. coli B cell paste; endogenous enzyme purified by Phenyl-Sepharose and Q-Sepharose chromatography, not recombinant
# Procedure: as §8, §9, §10, §11, §12, §13
# [8] = biological target: T2, E. coli B nitroreductase; assay: Enzyme kinetic and inhibition studies; assay type: biochemical
# Procedure: Protein concentration was determined using the a conventional protein assay (Bio-Rad) calibrated against bovine serum albumin.
# [9] = In vivo toxicity of prodrug in mice; conditions: for deaths: dose 10 mg/kg i.p., groups of 3 mice, 10 mg/kg
# Procedure: The actinomycin D prodrug (AMDPD) of formula V was tested for toxicity in mice. Groups of 3 mice were given 1, 10 or 100 mg/kg body weight i.p. of AMPD, and two further groups of 3 mice were given 1 and 10 mg/kg body weight i.p. of actinomycin D (AMD) dissolved in arachis oil. A further group of 3 mice were untreated, and a final group of 3 mice were given arachis oil i.p. only.
# The body weight of the mice were monitored over 9 days. All mice treated with 10 mg/kg of AMD were dead by day 1. […] In practice, the toxicity of AMDPD is likely to be even lower, since the preparation of AMDPD used contains about 1% unconverted AMD.
# [10] = system: V79 cells; assay: Survival (colony-forming ability) of V79 cells treated with CB 1954 in the presence of E. coli B nitroreductase (Table 4); assay type: cell-based, Hamster; conditions: nitroreductase 2 μg/ml
# Procedure: E. coli B nitroreductase. All treatments were for 2 hours at 37°
# cells were then plated out for their resulting colony-forming ability.
# nitroreductase concentration was 2 μg/ml and NADH was used as a […]
# [11] = substrate: NC(=O)c1cc(N2CC2)c([N+](=O)[O-])cc1[N+](=O)[O-]; assay: Enzyme kinetic studies; assay type: biochemical
# Procedure: (§14) Quinone reductase activities were assayed by a spectrophotometric method using menadione as a substrate and cytochrome c as a terminal electron acceptor as described in Knox et al, Biochem. Pharmacol., 37, 4671-4677, 1988. Initial rates of reaction were determined by linear regression analysis (r>0.995) and kinetic parameters determined from the resulting plots as described by Roberts et al, Biochem. Pharmacol. 38, 4137-4143, 1989. Protein concentration was determined using the a conventional protein assay (Bio-Rad) calibrated against bovine serum albumin.
# (§15) Kinetic parameters for the E. coli nitroreductase and Walker NAD(P)H, dehydrogenase (quinone) EC. […] The absolute rates of reduction of CB 1954 (i.e. under saturating conditions) by the two enzymes is their kcat values and this is 90 fold higher for the E. coli nitroreductase.
# [12] = substrate: CC1=CC(=O)c2ccccc2C1=O; assay: Enzyme kinetic studies; assay type: biochemical
# Procedure: as §14, §15
# [13] = NR 10 μg/ml + 50 μM prodrug + 500 μM NADH
# [14] = NR + prodrug + NADH, prodrug concentration not given
molecule,measurement,setting,value
E. coli B nitroreductase (Escherichia coli K-12),Km,[1],80 µM
same,Km,[2],862 ± 145 µM
NC(=O)c1ccccc1[N+](=O)[O-] [2-nitrobenzamide],RELATIVE RATE OF NADH OXIDATION NR,[3],0.06
"O=C(Nc1ccc(N(CCCl)CCCl)cc1)OCc1ccc([N+](=O)[O-])cc1 [I where R^1 NH2 = III, 4-[Bis(2-chloroethyl)amino]phenylcarbamic acid 4'-nitrobenzyl ester]",% DRUG REDUCTION,[4]; 50 μM prodrug alone,< 1.0%
same,% DRUG REDUCTION,[4]; [13],30%
same,% SURVIVAL,[5]; 50 μM prodrug alone,27.1%
CN(C)C(=O)c1cc(N2CC2)c([N+](=O)[O-])cc1[N+](=O)[O-] [CB 10-107],% DRUG REDUCTION,[4]; [14],45%
same,% SURVIVAL,"[6]; 50 μM prodrug alone, 2 hour 37° C.",85.6%
same,% SURVIVAL,"[6]; NADH + prodrug, no enzyme",87.9%
same,% SURVIVAL,[6]; [13],5.0%
same,% SURVIVAL,[5]; [14],5.0%
same,% DRUG REDUCTION,[7]; 50 μM prodrug alone,< 1.0%
same,% DRUG REDUCTION,"[7]; NADH + prodrug, no enzyme",< 1.0%
same,% DRUG REDUCTION,[7]; [13],45%
NC(=O)NN=Cc1ccc([N+](=O)[O-])o1 [5-nitro-2-furaldehydesemicarbazone],RELATIVE RATE OF NADH OXIDATION NR,[3],3.6
"CC1=CC(=O)c2ccccc2C1=O [MENADIONE, menadione]",Km of nitroreductase for menadione higher than Walker enzyme,[8],60 fold
NC(=O)c1cccc([N+](=O)[O-])c1 [3-nitrobenzamide],RELATIVE RATE OF NADH OXIDATION NR,[3],1.8
"O=[N+]([O-])c1ccc(O)c([N+](=O)[O-])c1 [2,4-dinitrophenol]",RELATIVE RATE OF NADH OXIDATION NR,[3],< 0.01
NC(=O)c1ccc([N+](=O)[O-])cc1 [4-nitrobenzamide],RELATIVE RATE OF NADH OXIDATION NR,[3],5.1
"NC(=O)c1cc([N+](=O)[O-])cc([N+](=O)[O-])c1 [3,5-dinitrobenzamide]",RELATIVE RATE OF NADH OXIDATION NR,[3],75.5
NC(=O)c1cc(N2CC2)c([N+](=O)[O-])cc1N [2-amino-5-(aziridin-1-yl)-4-nitrobenzamide],RELATIVE RATE OF NADH OXIDATION NR,[3],< 0.01
"Cc1c2oc3c(C)ccc(C(=O)N[C@@H]4C(=O)N[C@H](C(C)C)C(=O)N5CCC[C@H]5C(=O)N(C)CC(=O)N(C)[C@@H](C(C)C)C(=O)O[C@@H]4C)c3nc-2c(C(=O)N[C@@H]2C(=O)N[C@H](C(C)C)C(=O)N3CCC[C@H]3C(=O)N(C)CC(=O)N(C)[C@@H](C(C)C)C(=O)O[C@@H]2C)c(N)c1=O [AMD, actinomycin D] (I: T[dV]P[Sar][NMeV] / II: T[dV]P[Sar][NMeV]; ester I:1-I:C, II:1-II:C; linker I:N-II:N via Actinocin(9to1))","Weight as % of Day 0, Day 2","[9]; dose 1.0 mg/kg i.p., mice",98.6%
same,"Weight as % of Day 0, Day 3","[9]; dose 1.0 mg/kg i.p., mice",95%
same,"Weight as % of Day 0, Day 7","[9]; dose 1.0 mg/kg i.p., mice",101.6%
same,"Weight as % of Day 0, Day 9","[9]; dose 1.0 mg/kg i.p., mice",103%
same,deaths,[9],dead by day 1
same,deaths,[9]; listed as Active Drug,All dead on day 1
"NC(=O)c1cc(NCCO)c([N+](=O)[O-])cc1[N+](=O)[O-] [2,4-dinitro-5-(2-hydroxyethylamino)benzamide]",RELATIVE RATE OF NADH OXIDATION NR,[3],0.04
"NC(=O)c1cc(Cl)c([N+](=O)[O-])cc1[N+](=O)[O-] [5-chloro-2,4-dinitrobenzamide]",RELATIVE RATE OF NADH OXIDATION NR,[3],22.4
B1,% SURVIVAL,[10],94%
B2,Km,[11],826 ± 46 µM
same,Km,[12],1.3 µM
